Experimental data from US20050130989A1, “N-arylheteroaromatic products compositions containing them and use thereof” (Aventis Pharma S. A., priority 2003, published 2005).
pIC50: −log10 of the molar value. Counter-ions that a name gives are not always drawn.

Columns and labels:
tubulin = target: T1, tubulin (Sus scrofa, UniProt P02550+P02554); assay: Evaluation of the inhibition of tubulin polymerization (turbidimetry); type: biochemical, pig; settings: tubulin 10 μm (1 mg/ml), 37° C., turbidity at 350 nm; concentration that inhibits the rate of polymerization by 50%; read-out: Inhibition of tubulin polymerization IC 50 (μm)
T1 construct: Tubulin is purified from pig brain according to published methods; from tissue; host or cells: pig brain
Method in brief: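 Pig brain tubulin (>95% pure), 10 μm in MES pH 6.8/30% glycerol buffer plus 1 mM GTP and 6 mM MgCl2, with compound at 0.5–10 μm added before polymerization. Polymerization triggered by shift from 6° C to 37° C, followed by turbidity at 350 nm; IC50 is 50% inhibition of polymerization rate.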

HCT116 cells = assay: Inhibition of proliferation of the human colon tumor line HCT116 ([14C]-thymidine incorporation); type: cell-based; settings: Homo sapiens, HCT-116, 48 h, 48 hours at 37° C., read-out: Inhibition of HCT116 proliferation IC 50 (μm)
Method in brief: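 HCT116 cells (5000/well) in DMEM with 10% fetal calf serum incubated 48 h at 37° C with [14C]-thymidine (0.1 μCi/well) and compound up to 10 μm (DMSO ≤0.5%). Incorporated radioactivity counted; IC50 is concentration cutting radioactivity by 50% versus untreated control.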

T1 sequence (P02550 whole entry): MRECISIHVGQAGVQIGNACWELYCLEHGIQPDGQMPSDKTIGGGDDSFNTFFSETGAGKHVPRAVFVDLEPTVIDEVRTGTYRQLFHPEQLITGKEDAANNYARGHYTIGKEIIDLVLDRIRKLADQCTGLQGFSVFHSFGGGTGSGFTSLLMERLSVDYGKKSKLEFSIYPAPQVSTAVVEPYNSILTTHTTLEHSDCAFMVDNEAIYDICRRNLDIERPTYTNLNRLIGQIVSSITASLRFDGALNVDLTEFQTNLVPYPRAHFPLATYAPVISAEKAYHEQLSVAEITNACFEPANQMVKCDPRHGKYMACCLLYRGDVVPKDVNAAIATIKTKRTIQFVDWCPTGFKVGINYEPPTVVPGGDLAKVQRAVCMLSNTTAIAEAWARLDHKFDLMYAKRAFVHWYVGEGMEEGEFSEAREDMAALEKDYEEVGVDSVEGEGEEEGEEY
T1 sequence (P02554 whole entry): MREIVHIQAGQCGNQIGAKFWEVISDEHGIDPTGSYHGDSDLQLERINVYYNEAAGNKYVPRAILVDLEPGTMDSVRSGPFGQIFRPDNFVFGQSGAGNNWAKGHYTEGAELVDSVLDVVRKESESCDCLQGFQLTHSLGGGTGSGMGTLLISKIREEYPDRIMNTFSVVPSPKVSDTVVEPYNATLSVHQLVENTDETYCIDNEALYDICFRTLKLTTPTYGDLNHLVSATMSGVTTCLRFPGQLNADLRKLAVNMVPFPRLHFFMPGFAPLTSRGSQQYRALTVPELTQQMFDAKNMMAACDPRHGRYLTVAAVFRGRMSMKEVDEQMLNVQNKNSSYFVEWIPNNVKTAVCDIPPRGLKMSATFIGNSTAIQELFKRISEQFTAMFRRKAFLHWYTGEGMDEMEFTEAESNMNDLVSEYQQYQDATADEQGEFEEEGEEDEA

Structure (SMILES) | melting point | pIC50 (tubulin) | pIC50 (HCT116 cells)
Cc1cc(C(=O)N2CCN(c3cccc(C(=O)OC(C)(C)C)c3)CC2)n(-c2ccccc2)n1 [Example E27, tert-butyl 3-[4-(5-methyl-2-phenyl-2H-pyrazole-3-carbonyl)piperazin-1-yl]benzoate] | 144 °C | 4.65 | 
COc1cc(OC)cc(N2CCN(C(=O)c3cc(C(F)(F)F)nn3-c3ccccc3)CC2)c1 [Example E117, [4-(3,5-Dimethoxyphenyl)piperazin-1-yl](2-phenyl-5-trifluoromethyl-2H-pyrazol-3-yl)methanone] | 84 °C | 5.10 | 7.55
Cc1cc(C(=O)N2CCN(c3cncc4ccccc34)CC2)n(-c2ccccc2)n1 [Example E41] | 166 °C | 5.35 | 7.05
O=C(c1cccn1-c1ccccc1)N1CCN(c2cccnc2)CC1 (as salt: hydrochloride) [Example E46, (1-Phenyl-1H-pyrrol-2-yl)[4-(pyrid-3-yl)piperazin-1-yl]methanone hydrochloride] | 180 °C |  | 
Cc1cc(C(=O)N2CCN(c3cc(F)c(F)c(F)c3)CC2)n(-c2ccccc2)n1 [Example E111, (5-Methyl-2-phenyl-2H-pyrazol-3-yl)[4-(3,4,5-trifluorophenyl)piperazin-1-yl]methanone] | 204 °C | 5.63 | 
Cc1cc(C(=O)N2CCN(c3ccccc3[N+](=O)[O-])CC2)n(-c2ccccc2)n1 [Example E62, (5-Methyl-2-phenyl-2H-pyrazol-3-yl)[4-(2-nitrophenyl)piperazin-1-yl]methanone] | 127 °C | 4.87 | 
COc1cc(OC)cc(N2CCN(C(=O)c3cc(C(Br)Br)nn3-c3ccccc3)CC2)c1 [Example E78, [4-(3,5-Dimethoxyphenyl)piperazin-1-yl](3-dibromomethyl-1-phenyl-1H-pyrazol-5-yl)methanone] |  | 4.85 | 6.50
Cc1cc(C(=O)N2CCN(c3cccc(Cl)c3)CC2)n(C2CCCCC2)n1 [Example E48, [4-(3-Chlorophenyl)piperazin-1-yl](2-cyclohexyl-5-methyl-2H-pyrazol-3-yl)-methanone] |  | 5.49 | 6.31
COc1cccc(N2CCN(C(=O)c3cc(C)nn3-c3ccc(Cl)cc3)CC2)c1 [3/73] |  | 5.60 | 6.95
Cc1cc(C(=O)N2CCN(c3cccc(Cl)c3)CC2)n(-c2ccc(F)cc2)n1 [3/38] |  | 5.22 | 6.47
Cc1cc(C(=O)N2CCN(c3cccc4ccccc34)CC2)n(-c2cccc(F)c2)n1 [3/20] |  | 5.52 | 5.73
Cc1cc(C(=O)N2CCN(c3ccsc3)CC2)n(-c2ccccc2)n1 [Example E104, (5-Methyl-2-phenyl-2H-pyrazol-3-yl)[4-(thiophen-3-yl)piperazin-1-yl]-methanone] |  | 5.10 | 6.08
Cc1cc(C(=O)N2CCN(c3ccccc3C)CC2)n(-c2ccccc2)n1 [3/42] |  | 5.30 | 7.07
Cc1cc(C(=O)N2CCN(c3ccc(F)cc3)CC2)n(-c2cccc(Cl)c2)n1 [3/24] |  | 5.30 | 6.62
Cc1ccc(-n2nc(C)cc2C(=O)N2CCN(c3cccc(Cl)c3Cl)CC2)cc1 [3/132] |  | 4.70 | 5.51
Cc1cc(C(=O)N2CCN(c3ccccc3)CC2)n(-c2ccccc2)n1 [3/6] |  | 5.35 | 6.75

Structure (SMILES) | melting point | pIC50 (tubulin) | pIC50 (HCT116 cells)
COc1cccc(-n2nc(C)cc2C(=O)N2CCN(c3cccc(Cl)c3)CC2)c1 [3/35] |  | 5.30 | 6.55
CCc1ccccc1N1CCN(C(=O)c2cc(C)nn2-c2ccc(F)cc2)CC1 [3/104] |  | 5.30 | 6.55
Cc1cccc(N2CCN(C(=O)c3cc(C)nn3-c3ccccc3)CC2C)c1 (centres unmarked) [3/109] |  | 5.10 | 5.36
NC(=O)c1cccc(N2CCN(C(=O)c3cccn3-c3ccccc3)CC2)c1 [Example E57, 3-[4-(1-Phenyl-1H-pyrrole-2-carbonyl)piperazin-1-yl]benzamide] |  | 5.70 | 7.05
COc1ccc(-n2nc(C)cc2C(=O)N2CCN(c3cccc(OC)c3)CC2)cc1 [3/105] |  | 5.35 | 6.93
Cc1cccc(-n2nc(C)cc2C(=O)N2CCN(c3cccc(Cl)c3Cl)CC2)c1 [3/116] |  | 5.52 | 6.85
Cc1cc(C(=O)N2CCN(c3cccc(Cl)c3Cl)CC2)n(-c2ccc(Cl)cc2)n1 [3/129] |  | > 4.60 | 5.59
CCc1ccccc1N1CCN(C(=O)c2cc(C)nn2-c2cccc(C)c2)CC1 [3/29] |  | 5.30 | 6.34
Cc1cc(C(=O)N2CCN(c3cccc(C(N)=O)c3)CC2)n(-c2cccnc2)n1 [Example E97, 3-[4-(5-Methyl-2-pyrid-3-yl-2H-pyrazole-3-carbonyl)piperazin-1-yl]benzamide] |  | 5.44 | 7.09
COc1cccc(-n2nc(C)cc2C(=O)N2CCN(c3cccc(Cl)c3Cl)CC2)c1 [3/139] |  | > 4.60 | 5.87
CNCCNC(=O)c1cccc(N2CCN(C(=O)c3cc(C)nn3-c3ccccc3)CC2)c1 [Example E110, N-(2-Methylaminoethyl)-3-[4-(5-methyl-2-phenyl-2H-pyrazole-3-carbonyl)piperazin-1-yl]benzamide] |  | 4.92 | 5.93
NC(=O)c1cccc(N2CCN(C(=O)c3cc(CO)nn3-c3ccccc3)CC2)c1 [Example E134, 3-[4-(5-Hydroxymethyl-2-phenyl-2H-pyrazole-3-carbonyl)piperazin-1-yl]benzamide] | 216 °C | 5.49 | 
COc1cc(OC)cc(N2CCN(C(=O)c3cc(-c4ccc(F)cc4)nn3-c3ccccc3)CC2)c1 [Example E88, [4-(3,5-Dimethoxyphenyl)piperazin-1-yl][5-(4-fluorophenyl)-2-phenyl-2H-pyrazol-3-yl]methanone] |  | 5.34 | 5.90
Cc1cccc(-n2nc(C)cc2C(=O)N2CCN(c3cccc(C(F)(F)F)c3)CC2)c1 [3/46] |  | 5.10 | 6.71
Cc1nccn1Cc1cc(C(=O)N2CCN(c3cccc(Cl)c3)CC2)n(-c2ccccc2)n1 [Example E75, [4-(3-Chlorophenyl)piperazin-1-yl][5-(2-methylimidazol-1-ylmethyl)-2-phenyl-2H-pyrazol-3-yl]methanone] |  | 5.29 | 7.21

Further lines, results first:

melting point | pIC50 (tubulin) | pIC50 (HCT116 cells) | Structure (SMILES)
109 °C | 6.22 | 8.66 | Cc1cc(C)cc(N2CCN(C(=O)c3cc(C)nn3-c3ccccc3)CC2)c1 [Example E63, [4-(3,5-Dimethylphenyl)piperazin-1-yl](5-methyl-2-phenyl-2H-pyrazol-3-yl)methanone]
136 °C | 6.05 | 8.31 | Cc1cc(C(=O)N2CCN(c3cccc(C#N)c3)CC2)n(-c2ccccc2)n1 [Example E10, [4-(3-Cyanophenyl)piperazin-1-yl](5-methyl-2-phenyl-2H-pyrazol-3-yl)-methanone]
 | 5.74 | 6.33 | Cc1cc(C(=O)N2CCN(c3cc(Cl)ccc3C)CC2)n(-c2cccc(F)c2)n1 [3/21]
 | 5.70 | 7.60 | COc1cccc(N2CCN(C(=O)c3cc(C)nn3-c3ccccc3)CC2)c1 [3/10]
 | 6.05 | 8.05 | Cc1cc(C(=O)N2CCN(c3cncc(Cl)c3)CC2)n(-c2ccccc2)n1 [Example E33, [4-(5-Chloro-3-pyridyl)piperazin-1-yl](5-methyl-2-phenyl-2H-pyrazol-3-yl)methanone]
 | 5.82 | 7.68 | Cc1ccnc(N2CCN(C(=O)c3cc(C)nn3-c3ccccc3)CC2)c1 [Example E31, (5-Methyl-2-phenyl-2H-pyrazol-3-yl)[4-(4-methylpyrid-2-yl)piperazin-1-yl]methanone]
 | 5.70 | 7.39 | Cc1cc(C(=O)N2CCN(c3cccc(Cl)c3Cl)CC2)n(-c2cccc(F)c2)n1 [3/99]
 | 5.74 | 7.06 | COc1cccc(-n2nc(C)cc2C(=O)N2CCN(c3cccc(C)c3)CC2)c1 [3/3]
 | 5.89 | 8.07 | COc1ccc(Cl)cc1N1CCN(C(=O)c2cc(C)nn2-c2ccc(F)cc2)CC1 [3/60]
 | 6.03 | 8.74 | COc1cc(OC)cc(N2CCN(C(=O)c3cc(Br)nn3-c3ccccc3)CC2)c1 [Example E82, (5-Bromo-2-phenyl-2H-pyrazol-3-yl)[4-(3,5-dimethoxyphenyl)piperazin-1-y]-methanone]
 | 5.85 | 7.96 | Cc1cc(C(=S)N2CCN(c3cccc(Cl)c3)CC2)n(-c2ccccc2)n1 [Example E7, [4-(3-Chlorophenyl)piperazin-1-yl](5-methyl-2-phenyl-2H-pyrazol-3-yl)-methanethione]
 | 5.89 | 6.85 | Cc1cccc(-n2nc(C)cc2C(=O)N2CCN(c3cccc(Cl)c3)CC2)c1 [3/31]
 | 5.82 | 6.70 | Cc1cc(C(=O)N2CCN(c3cccc(C)c3C)CC2)n(-c2ccc(F)cc2)n1 [3/148]
 | 6.00 | 6.93 | COc1ccc(Cl)cc1N1CCN(C(=O)c2cc(C)nn2-c2cccc(C)c2)CC1 [3/54]
 | 5.89 | 8.33 | Cc1cc(C(=O)N2CCN(c3cccc(Cl)n3)CC2)n(-c2ccccc2)n1 [Example E4, [4-(6-Chloropyrid-2-yl)piperazin-1-yl](5-methyl-2-phenyl-2H-pyrazol-3-yl)-methanone]
